Oxacillin MIC data for one compound are collected here from US10988792B2, “Methods for antimicrobial resistance determination” (bioMerieux, Inc., priority 2009, dated 2021).

The subject of this assay is S. aureus isolates. Description: Vitek AST cards MIC. In kind it is cell-based. Particulars: 3/5 strains classified as benzyl-penicillin resistant and oxacillin sensitive by Vitek cards. On the procedure:
Twenty different strains of S. aureus (10 MRSA and 10 MSSA strains, confirmed with cefoxitin discs and Vitek-2) were propagated. A loopful of growth (1 μL) was removed from 24-hour plates and suspended in BacT/ALERT SA culture media (8 ml in a glass screw-capped tube). The tubes were vortexed well and incubated at 36° C. for 6 hours. The OD of each suspension was measured at 660 nm and adjusted to approximately the same density (0.50-0.75 OD; sample #12166 was only 0.28). 50 μM BOCILLIN™-FL (0.1 ml) was placed into each of 20 labeled microfuge tubes. A sample of each strain (0.9 ml) was added to each tube, mixed, and incubated at 37° C. for 30 minutes. The reaction mixture was then removed and added to a second set of tubes containing 0.2 ml of an oil blend (1.000 part type DF immersion oil plus 0.875 part Drakeol 5 mineral oil). The tubes were centrifuged for 2 minutes at 10,000 rpm in an A-8-11 rotor (Eppendorf 5417R). The supernatant and most of the oil was aspirated with a vacuum device. The remaining oil was removed using a Gilson P200 tip and the pellet was resuspended in 100 μl PBS. The cells were transferred to an acrylic cuvette containing 3 ml PBS and read in the FluoroLog 3 system using the FluoroScan “Bocillin” points listed in Table 3. Additionally, Vitek AST cards were run on each of the 20 isolates (from the same 24 hour plates).

Consider `Cc1onc(-c2ccccc2)c1C(=O)N[C@@H]1C(=O)N2[C@@H]1SC(C)(C)[C@@H]2C(=O)O` [oxacillin], for which the oxacillin MIC stood at 0.5 µg/mL.
